In patent US10941216B2, “Engineered polypeptide conjugates and methods for making thereof using transglutaminase” (PFIZER INC., priority 2010, dated 2021):
Where two headings read alike, the source gives them in different places. Numbered stars: 1 amine (or outer) side, 2 acyl side, 3 side chain; on linkers, the order of the positions; unused ones are H or OH. Square brackets hold non-standard residues; d marks the D form. Peptide text beside a SMILES is read from it. * marks the point of attachment. ξ: configuration not given here. Dolaproine = CO[C@@H]([C@@H]1CCCN1)[C@@H](C)C(=O)O; X1 = COC([C@@H](C)C(=O)[*:2])[C@@H]1CCCN1[*:1]; Dil = CC[C@H](C)[C@H](NC)[C@@H](CC(=O)O)OC; PABC = O=C(OCc1ccc(N[*:1])cc1)[*:2]; Doe = c1ccc(C[C@H](N*)c2nccs2)cc1; X2 = C[C@@H](N*)[C@@H](O)c1ccccc1; Cit = NC(=O)NCCC[C@H](N)C(=O)O; NMeV = CN[C@H](C(=O)O)C(C)C; PEG3 = NCCOCCOCCOCCC(=O)O; ξK = NCCCCC(N)C(=O)O; Ahx = NCCCCCC(=O)O; βAla = NCCC(=O)O

Key:
Experiment in all cases: In vitro cytotoxicity, CellTiter-Glo
Format in all cases: cell-based
HT-29 cells = conditions: Homo sapiens; HT-29, target expressing, 96 hours; read-out: HT-29 Antibody IC50
Description: (§1) In vitro cytotoxicity assays were carried out using various antibodies, payloads (i.e., agent moieties), and amine donor units. For mAb2 (a chimeric IgG1 antibody), target expressing (A431, OVCAR3, BxPC3 and HT-29) or non-expressing (SW620) cells were seeded on white walled clear bottom plates at 2000 cells/well for 24 hours before treatment. […] Cell viability was determined by CellTiter-Glo® Luminescent Cell Viability Assay 96 (Promega, Madison Wis.) 96 hours after treatment. […] IC50 was calculated by Prism software.

A431 cells = conditions: Homo sapiens
Description: as §1

SW620 cells = conditions: Homo sapiens
Description: as §1

BxPC3 cells = conditions: Homo sapiens, BXPC-3, 96 h, read-out: BxPC3 Antibody IC50 (nM)
Description: as §1

[1] = A-431, 96 h, read-out: A431 Antibody IC50 (nM)
[2] = SW-620, SW620, target non-expressing, 96 hours, read-out: SW620 Antibody IC50
[3] = A-431, A431, target expressing, 96 hours, read-out: A431 Antibody IC50

Compound | IC50 (HT-29 cells) | IC50 (A431 cells; [1]) | IC50 (SW620 cells; [2]) | IC50 (A431 cells; [3]) | IC50 (BxPC3 cells) | IC50 (SW620 cells; SW-620, 96 h, read-out: SW620 Antibody IC50 (nM))
CC[C@H](C)[C@@H]([C@@H](CC(=O)N1CCC[C@H]1[C@H](OC)[C@@H](C)C(=O)N[C@H](C)[C@@H](O)c1ccccc1)OC)N(C)C(=O)[C@@H](NC(=O)[C@H](C(C)C)N(C)C(=O)CCOCCOCCOCCN)C(C)C [Sample 33, Amino-PEG3-C2-MMAE] (H-[PEG3][NMeV]V[Dil][Dolaproine]-X2) | 211 nM | 258 nM |  |  |  | 
CO[C@H]1/C=C\C=C(/C)C(=O)NC2=CC(=O)C(NCCCCN)=C(C[C@@H](C)C[C@H](OC)[C@H](O)[C@@H](C)/C=C(\C)[C@@H]1OC(N)=O)C2=O [Sample 25, Putrescinyl-Geldanamycin] | 318 nM |  | > 1000 nM | > 1000 nM |  | 
CC[C@H](C)[C@@H]([C@@H](CC(=O)N1CCC[C@H]1[C@H](OC)[C@@H](C)C(=O)N[C@@H](Cc1ccccc1)c1nccs1)OC)N(C)C(=O)[C@@H](NC(=O)[C@H](C(C)C)N(C)C(=O)CCCCCN)C(C)C [Sample 28, Aminocaproyl-MMAD] (H-[Ahx][NMeV]V[Dil][Dolaproine]-Doe) | 97.5 nM |  |  | 146 nM |  | 
CC[C@H](C)[C@@H]([C@@H](CC(=O)N1CCC[C@H]1[C@H](OC)[C@@H](C)C(=O)N[C@@H](Cc1ccccc1)c1nccs1)OC)N(C)C(=O)[C@@H](NC(=O)[C@H](C(C)C)N(C)C(=O)CCNC(=O)C(CCCCN)NC(C)=O)C(C)C (stereo partly drawn) [Sample 30, AcLys-β-Ala-MMAD] (Ac-[ξK][βAla][NMeV]V[Dil][Dolaproine]-Doe) | 59.5 nM |  |  | 98.5 nM |  | 
CC[C@H](C)[C@@H]([C@@H](CC(=O)N1CCC[C@H]1C(OC)[C@@H](C)C(=O)N[C@@H](Cc1ccccc1)C(=O)O)OC)N(C)C(=O)[C@@H](NC(=O)[C@H](C(C)C)N(C)C(=O)CCCCCN)C(C)C (stereo partly drawn) [Sample 23, Aminocaproyl-MMAF] (H-[Ahx][NMeV]V[Dil][X1]F-OH) |  |  | 0.01 nM |  | 0.28 nM | 
CC[C@H](C)[C@@H]([C@@H](CC(=O)N1CCC[C@H]1[C@H](OC)[C@@H](C)C(=O)N[C@@H](Cc1ccccc1)c1nccs1)OC)N(C)C(=O)[C@@H](NC(=O)[C@H](C(C)C)N(C)C(=O)OCc1ccc(NC(=O)[C@H](CCCNC(N)=O)NC(=O)[C@@H](NC(=O)[C@H](CCCCN)NC(C)=O)C(C)C)cc1)C(C)C [Sample 27, AcLys-VC-PABC-MMAD] (Ac-KV[Cit][PABC][NMeV]V[Dil][Dolaproine]-Doe) | 0.189 nM | 0.003 nM |  |  |  | 
CC[C@H](C)[C@@H]([C@@H](CC(=O)N1CCC[C@H]1[C@H](OC)[C@@H](C)C(=O)N[C@@H](Cc1ccccc1)C(=O)O)OC)N(C)C(=O)[C@@H](NC(=O)[C@H](C(C)C)N(C)C(=O)OCc1ccc(NC(=O)[C@H](CCCNC(N)=O)NC(=O)[C@@H](NC(=O)CCCCCN)C(C)C)cc1)C(C)C [Sample 24, VC-PABC-MMAF] (H-[Ahx]V[Cit][PABC][NMeV]V[Dil][Dolaproine]F-OH) |  |  |  |  | 427 nM | 483 nM
